Results taken from patent US9073895B2 (Boehringer Ingelheim International GmbH, priority 2010, dated 2015).
pIC50: −log10 of the molar value.

Experiments:
[1] = target: T1, recombinant human FLAP protein (Homo sapiens, UniProt P20292); assay: FLAP binding assay (SPA, displacement of [125I]L-691,831); settings: membranes of sf9 cells expressing human FLAP, [125I]L-691,831 probe; read-out: hFLAP binding IC50
T1 construct: made in house; host or cells: Sf9 insect cells (membrane fraction, 100,000 x g pellet)
T1 sequence (P20292 1-161): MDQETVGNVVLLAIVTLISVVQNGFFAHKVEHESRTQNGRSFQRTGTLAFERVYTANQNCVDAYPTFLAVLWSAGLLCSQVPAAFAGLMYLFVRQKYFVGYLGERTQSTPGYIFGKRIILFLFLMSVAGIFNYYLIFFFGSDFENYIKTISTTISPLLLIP
Procedure, shortened: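 Membranes from sf9 cells expressing human FLAP (5 μg/well) were bound to WGA SPA beads (200 μg/well). Nonspecific binding was defined with 10 μM unlabelled L-691,831.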

[2] = tested on: synthesis of LTB4 in human whole blood; assay: Human whole blood LTB4 production inhibition assay; assay type: cell-based; settings: heparinized human whole blood, calcimycin 20 μM, plasma LTB4; read-out: HuWB IC50
Procedure, shortened: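 Heparinized human whole blood was preincubated with compound for 15 min at 37° C, then stimulated with calcimycin (20 μM final, in PBS pH 7.4) for a further 30 min at 37° C. Plasma LTB4 was quantified by antibody-based homogeneous time-resolved fluorescence.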

Row | Structure (SMILES) | pIC50 [1] | pIC50 [2]
1 | Nc1ncc(-c2ccc(C3(C(=O)Nc4ccccn4)CCC3)cc2)cn1 [Example 129, 1-[4-(2-aminopyrimidin-5-yl)phenyl]-N-(pyridin-2-yl)cyclobutanecarboxamide] | 7.98 | 5.06
2 | Cc1nc(-c2ccc(NC(=O)C(c3ccc(-c4cnc(N)nc4)cc3)C(C)(C)C)nc2)cs1 (stereo not shown) [Example 90, 2-[4-(2-aminopyrimidin-5-yl)phenyl]-3,3-dimethyl-N-[5-(2-methyl-1,3-thiazol-4-yl)pyridin-2-yl]butanamide] | 7.50 | 5.68
3 | Nc1ncc(-c2ccc(C3(C(=O)Nc4nc(-c5ccncc5)cs4)CCC3)cc2)cn1 [Example 254, 1-[4-(2-aminopyrimidin-5-yl)phenyl]-N-[4-(pyridin-4-yl)-1,3-thiazol-2-yl]cyclobutanecarboxamide] | 8.80 | 6.95
4 | CS(=O)(=O)c1ccc(NC(=O)C2(c3ccc(-c4cnc(N)nc4)cc3)CCC2)cc1 [Example 233, 1-[4-(2-aminopyrimidin-5-yl)phenyl]-N-[4-(methylsulfonyl)phenyl]cyclobutane-carboxamide] | 8.19 | 6.80
5 | Nc1ncc(-c2ccc(C3(C(=O)Nc4cc(Cl)cc(Cl)c4)CCOCC3)cc2)cn1 [Example 15, 4-[4-(2-aminopyrimidin-5-yl)phenyl]-N-(3,5-dichlorophenyl)tetrahydro-2H-pyran-4-carboxamide] | 7.63 | < 5.52
6 | Nc1ncc(-c2ccc(C3(C(=O)Nc4ccc(-c5cccnc5)cc4)CCOCC3)cc2)cn1 [Example 45, 4-[4-(2-aminopyrimidin-5-yl)phenyl]-N-[4-(pyridin-3-yl)phenyl]tetrahydro-2H-pyran-4-carboxamide] | 8.21 | 6.34
7 | COc1ccc(-c2ccc(NC(=O)C3(c4ccc(-c5cnc6[nH]ccc6c5)cc4)CCOCC3)nc2)cn1 [Example 168, N-(6'-methoxy-3,3'-bipyridin-6-yl)-4-[4-(1H-pyrrolo[2,3-b]pyridin-5-yl)phenyl]tetrahydro-2H-pyran-4-carboxamide] | 8.10 | 6.21
8 | Cc1nc(-c2ccc(NC(=O)C3(c4ccc(-c5cnc(N)nc5)cc4)CCCC3)nc2)cs1 [Example 223] | 8.15 | 5.78
9 | Nc1ncc(-c2ccc(C3(C(=O)Nc4ccc(C(F)(F)F)cn4)CCOCC3)cc2)cn1 [Example 23, 4-[4-(2-aminopyrimidin-5-yl)phenyl]-N-[5-(trifluoromethyl)pyridin-2-yl]tetrahydro-2H-pyran-4-carboxamide] | 7.22 | < 5.52
10 | Nc1ncc(-c2ccc(C3(C(=O)Nc4ccc(N5CCOCC5)c(Cl)c4)CCOCC3)cc2)cn1 [Example 72, 4-[4-(2-aminopyrimidin-5-yl)phenyl]-N-[3-chloro-4-(mopholin-4-yl)phenyl]tetrahydro-2H-pyran-4-carboxamide] | 7.55 | 6.61
11 | COc1ccc(NC(=O)C2(c3ccc(-c4cnc(N)nc4)cc3)CCC2)cn1 [Example 213, 1-[4-(2-aminopyrimidin-5-yl)phenyl]-N-(6-methoxypyridin-3-yl)cyclobutanecarboxamide] | 7.90 | 6.48
12 | Nc1ncc(-c2ccc(C3(C(=O)Nc4cc(-c5ccncc5)no4)CCOCC3)cc2)cn1 [Example 58, 4-[4-(2-aminopyrimidin-5-yl)phenyl]-N-[3-(pyridin-4-yl)-1,2-oxazol-5-yl]tetrahydro-2H-pyran-4-carboxamide] | 6.77 | < 5.52
13 | Cn1ccc(NC(=O)C2(c3ccc(-c4cnc(N)nc4)cc3)CCC2)cc1=O [Example 216, 1-[4-(2-aminopyrimidin-5-yl)phenyl]-N-(1-methyl-2-oxo-1,2-dihydropyridin-4-yl)cyclobutanecarboxamide] | 7.04 | 5.52
14 | Nc1ncc(-c2ccc(C3(C(=O)Nc4ccc5cnccc5c4)CCOCC3)cc2)cn1 [Example 51, 4-[4-(2-aminopyrimidin-5-yl)phenyl]-N-(isoquinolin-6-yl)tetrahydro-2H-pyran-4-carboxamide] | 7.74 | 5.77
15 | Cc1nc(-c2ccc(NC(=O)C3(c4ccc(-c5cnc(N)c(C)c5)cc4)CCOCC3)nc2)cs1 [Example 152, 4-[4-(6-amino-5-methylpyridin-3-yl)phenyl]-N-[5-(2-methyl-1,3-thiazol-4-yl)pyridin-2-yl]tetrahydro-2H-pyran-4-carboxamide] | 7.46 | 6.05
16 | Nc1ncc(-c2ccc(C3(C(=O)Nc4ccc(OCc5ccccc5)cc4)CCOCC3)cc2)cn1 [Example 85, 4-[4-(2-aminopyrimidin-5-yl)phenyl]-N-[4-(benzyloxy)phenyl]tetrahydro-2H-pyran-4-carboxamide] | 7.90 | 6.07

Row | Structure (SMILES) | pIC50 [1] | pIC50 [2]
17 | Cc1nc(-c2ccc(NC(=O)C(C)(c3ccc(-c4cnc(N)nc4)cc3)C(C)C)nc2)cs1 (stereo not shown) [Example 119, 2-[4-(2-aminopyrimidin-5-yl)phenyl]-2,3-dimethyl-N-[5-(2-methyl-1,3-thiazol-4-yl)pyridin-2-yl]butanamide] | 8.40 | 6.01
18 | Nc1ncc(-c2ccc(C3(C(=O)Nc4ccc(OC(F)(F)F)cc4)CCOCC3)cc2)cn1 [Example 39, 4-[4-(2-aminopyrimidin-5-yl)phenyl]-N-[4-(trifluoromethoxy)phenyl] tetrahydro-2H-pyran-4-carboxamide] | 7.26 | 5.72
19 | CNc1ncc(-c2ccc(C3(C(=O)Nc4cccnc4)CCC3)cc2)cn1 [Example 192, 1-{4-[2-(methylamino)pyrimidin-5-yl]phenyl}-N-(pyridin-3-yl)cyclobutanecarboxamide] | 7.49 | 6.06
20 | Nc1ncc(-c2ccc(C3(C(=O)Nc4cc(-c5ccccc5)no4)CCOCC3)cc2)cn1 [Example 37, 4-[4-(2-aminopyrimidin-5-yl)phenyl]-N-(3-phenyl-1,2-oxazol-5-yl)tetrahydro-2H-pyran-4-carboxamide] | 7.46 | < 5.52
21 | CN(C)S(=O)(=O)c1ccc(NC(=O)C2(c3ccc(-c4cnc(N)nc4)cc3)CCC2)cc1 [Example 87, 1-[4-(2-aminopyrimidin-5-yl)phenyl]-N-[4-(dimethylsulfamoyl)phenyl] cyclobutanecarboxamide] | 8.40 | 6.72
22 | Cc1nc(-c2ccc(NC(=O)C3(c4ccc(-c5cnc(N)nc5)cc4)CCCCC3)cc2)cs1 [Example 120, 1-[4-(2-aminopyrimidin-5-yl)phenyl]-N-[4-(2-methyl-1,3-thiazol-4-yl)phenyl]cyclohexane-carboxamide] | 7.94 | 5.90
23 | Nc1ncc(-c2ccc(C3(C(=O)Nc4ccc(C5CCCCC5)cc4)CCOCC3)cc2)cn1 [Example 5, 4-[4-(2-aminopyrimidin-5-yl)phenyl]-N-(4-cyclohexylphenyl)tetrahydro-2H-pyran-4-carboxamide] | 7.00 | 5.53
24 | COc1cc(NC(=O)C2(c3ccc(-c4cnc(N)nc4)cc3)CCC2)ncn1 [Example 199, 1-[4-(2-aminopyrimidin-5-yl)phenyl]-N-(6-methoxypyrimidin-4-yl)cyclobutanecarboxamide] | 8.24 | 5.86
25 | COc1cncc(-c2ccc(C(C)(C(=O)Nc3ccc(OCc4ccccn4)cc3)C(C)C)cc2)c1 (stereo not shown) [Example 111] | 6.74 | 5.62
26 | Cc1ccc(NC(=O)C2(c3ccc(-c4cnc(N)nc4)cc3)CCOCC2)cc1C#N [Example 62, 4-[4-(2-aminopyrimidin-5-yl)phenyl]-N-(3-cyano-4-methylphenyl)tetrahydro-2H-pyran-4-carboxamide] | 7.47 | < 5.52
27 | Nc1ncc(-c2ccc(C3(C(=O)Nc4ccc5ncsc5c4)CCOCC3)cc2)cn1 [Example 18, 4-[4-(2-aminopyrimidin-5-yl)phenyl]-N-(1,3-benzothiazol-6-yl)tetrahydro-2H-pyran-4-carboxamide] | 7.80 | 5.77
28 | Nc1ncc(-c2ccc(C3(C(=O)Nc4ccc(-c5ccccc5)cc4)CCOCC3)cc2)cn1 [Example 16, 4-[4-(2-aminopyrimidin-5-yl)phenyl]-N-(biphenyl-4-yl)tetrahydro-2H-pyran-4-carboxamide] | 7.97 | 6.20
29 | Nc1ncc(-c2ccc(C3(C(=O)Nc4nc(-c5cccnc5)cs4)CCC3)cc2)cn1 [Example 253, 1-[4-(2-aminopyrimidin-5-yl)phenyl]-N-[4-(pyridin-3-yl)-1,3-thiazol-2-yl]cyclobutanecarboxamide] | 8.74 | 6.57
30 | Nc1ncc(-c2ccc(C3(C(=O)Nc4cnc(-c5ccccc5)nc4)CCOCC3)cc2)cn1 [Example 65, 4-[4-(2-aminopyrimidin-5-yl)phenyl]-N-(2-phenylpyrimidin-5-yl)tetrahydro-2H-pyran-4-carboxamide] | 7.85 | 6.04
31 | Nc1ncc(-c2ccc(C3(C(=O)Nc4ccc(-c5cnco5)cc4)CCOCC3)cc2)cn1 [Example 27, 4-[4-(2-aminopyrimidin-5-yl)phenyl]-N-[4-(1,3-oxazol-5-yl)phenyl]tetrahydro-2H-pyran-4-carboxamide] | 8.26 | 6.68
32 | CS(=O)(=O)c1ccc(NC(=O)C2(c3ccc(-c4cnc(N)nc4)cn3)CCC2)cc1 [Example 107, 1-[5-(2-aminopyrimidin-5-yl)pyridin-2-yl]-N-[4-(methylsulfonyl)phenyl]cyclobutane-carboxamide] | 7.06 | 5.96
